Results published in the NIST ThermoML archive (doi:10.1016/j.fluid.2008.09.004).

Legend:
[1] = xn = mol fraction of the nth substance listed; settings: 101 kPa, Liquid, Vibrating tube method
[2] = molar heat capacity at constant pressure; xn = mol fraction of the nth substance listed; settings: 101 kPa, Liquid, Small sample (50 mg) DSC
[3] = excess molar enthalpy (molar enthalpy of mixing); xn = mol fraction of the nth substance listed; settings: 303.15 K, 101 kPa, Liquid, Calvet calorimetry

CCCCn1cc[n+](C)c1.O=S(=O)([O-])C(F)(F)F [1-butyl-3-methylimidazolium trifluoromethanesulfonate] + CCO
Settings | mass density, [1] [kg/m3] | molar heat capacity at constant pressure, [2] [J/K/mol]
293.15 K, x1 = 0.0522 | 881 | 128.2
293.15 K, x1 = 0.0982 | 944.5 | 143.3
293.15 K, x1 = 0.1976 | 1041.9 | 175.3
293.15 K, x1 = 0.2999 | 1111.4 | 207.9
293.15 K, x1 = 0.3996 | 1160.3 | 237.9
293.15 K, x1 = 0.4973 | 1196.9 | 267.2
293.15 K, x1 = 0.5923 | 1225.3 | 295.7
293.15 K, x1 = 0.6898 | 1249.1 | 326.5
293.15 K, x1 = 0.7868 | 1268.5 | 355.5
293.15 K, x1 = 0.8756 | 1283.7 | 382.4
293.15 K, x1 = 0.9283 | 1291.6 | 399
298.15 K, x1 = 0.0522 | 876.7 | 130
298.15 K, x1 = 0.0982 | 940.2 | 144.9
298.15 K, x1 = 0.1976 | 1037.7 | 176.8
298.15 K, x1 = 0.2999 | 1107.2 | 209.2
298.15 K, x1 = 0.3996 | 1156.1 | 239.4
298.15 K, x1 = 0.4973 | 1192.8 | 268.9
298.15 K, x1 = 0.5923 | 1221.2 | 297.3
298.15 K, x1 = 0.6898 | 1245 | 328.2
298.15 K, x1 = 0.7868 | 1264.5 | 357.6
298.15 K, x1 = 0.8756 | 1279.7 | 384.5
298.15 K, x1 = 0.9283 | 1287.6 | 401.2
303.15 K, x1 = 0.0522 | 872.5 | 131.8
303.15 K, x1 = 0.0982 | 935.9 | 146.4
303.15 K, x1 = 0.1976 | 1033.4 | 178.3
303.15 K, x1 = 0.2999 | 1103 | 210.6
303.15 K, x1 = 0.3996 | 1152 | 240.9
303.15 K, x1 = 0.4973 | 1188.7 | 270.7
303.15 K, x1 = 0.5923 | 1217.2 | 299
303.15 K, x1 = 0.6898 | 1241 | 330
303.15 K, x1 = 0.7868 | 1260.5 | 359.9
303.15 K, x1 = 0.8756 | 1275.7 | 386.8
303.15 K, x1 = 0.9283 | 1283.7 | 403.7
308.15 K, x1 = 0.0522 | 868.2 | 133.8
308.15 K, x1 = 0.0982 | 931.7 | 148.2
308.15 K, x1 = 0.1976 | 1029.2 | 180
308.15 K, x1 = 0.2999 | 1098.8 | 212.1
308.15 K, x1 = 0.3996 | 1147.9 | 242.6
308.15 K, x1 = 0.4973 | 1184.7 | 272.6
308.15 K, x1 = 0.5923 | 1213.1 | 301
308.15 K, x1 = 0.6898 | 1237 | 332
308.15 K, x1 = 0.7868 | 1256.5 | 362.3
308.15 K, x1 = 0.8756 | 1271.7 | 389.3
308.15 K, x1 = 0.9283 | 1279.7 | 406.3
313.15 K, x1 = 0.0522 | 863.9 | 135.8
313.15 K, x1 = 0.0982 | 927.4 | 150
313.15 K, x1 = 0.1976 | 1025 | 181.7
313.15 K, x1 = 0.2999 | 1094.7 | 213.7
313.15 K, x1 = 0.3996 | 1143.8 | 244.3
313.15 K, x1 = 0.4973 | 1180.6 | 274.6
313.15 K, x1 = 0.5923 | 1209.1 | 303
313.15 K, x1 = 0.6898 | 1233 | 334.1
313.15 K, x1 = 0.7868 | 1252.5 | 364.8
313.15 K, x1 = 0.8756 | 1267.7 | 391.9
313.15 K, x1 = 0.9283 | 1275.8 | 409
318.15 K, x1 = 0.0522 | 859.5 | 138
318.15 K, x1 = 0.0982 | 923 | 152
318.15 K, x1 = 0.1976 | 1020.7 | 183.6
318.15 K, x1 = 0.2999 | 1090.5 | 215.4
318.15 K, x1 = 0.3996 | 1139.6 | 246.2
318.15 K, x1 = 0.4973 | 1176.5 | 276.8
318.15 K, x1 = 0.5923 | 1205 | 305.1
318.15 K, x1 = 0.6898 | 1229 | 336.4
318.15 K, x1 = 0.7868 | 1248.5 | 367.5
318.15 K, x1 = 0.8756 | 1263.8 | 394.6
318.15 K, x1 = 0.9283 | 1271.8 | 411.9

[3]
Settings | excess molar enthalpy [kcal/mol]
x1 = 0.0987 | 0.23
x1 = 0.2029 | 0.363
x1 = 0.2948 | 0.416
x1 = 0.4016 | 0.424
x1 = 0.4928 | 0.406
x1 = 0.5952 | 0.353
x1 = 0.6832 | 0.291
x1 = 0.8026 | 0.199
x1 = 0.8759 | 0.129
